{"source": "ChEMBL document CHEMBL4699592", "about": "“Nature-Inspired (di)Azine-Bridged Bisindole Alkaloids with Potent Antibacterial In Vitro and In Vivo Efficacy against Methicillin-Resistant Staphylococcus aureus” (J Med Chem, 2020)", "key": {"Staphylococcus aureus [1]": {"tested_on": "Staphylococcus aureus", "test": "Bactericidal activity against […] Staphylococcus aureus ATCC 700699 assessed as reduction in bacterial viability at 5 fold MIC incubated for 6 hrs by time kill assay relative to control", "assay_type": "functional"}, "Cell membrane [2]": {"tested_on": "Cell membrane", "test": "Induction of cell membrane permeabilization in methicillin resistant Staphylococcus aureus ATCC 700699 at 5 fold MIC measured at 5 mins interval for 2 hrs by propidium iodide staining based fluorescence assay"}, "Cell membrane [3]": {"tested_on": "Cell membrane", "test": "Induction of cell membrane permeabilization in GFP-expressing Staphylococcus aureus ATCC 700699 assessed as increase in cellular ATP leakage at 5 fold MIC measured after 0.5 hrs by Bactiter-glo assay", "assay_type": "subcellular"}, "Acinetobacter baumannii [4]": {"tested_on": "Acinetobacter baumannii", "test": "Antibacterial activity against Acinetobacter baumannii ATCC BAA-1605 after 24 hrs by broth microdilution method", "assay_type": "functional"}, "[5]": {"molecular_target": "Pyruvate kinase PKM (Oryctolagus cuniculus) (UniProt P11974)", "sequence (P11974 whole entry)": "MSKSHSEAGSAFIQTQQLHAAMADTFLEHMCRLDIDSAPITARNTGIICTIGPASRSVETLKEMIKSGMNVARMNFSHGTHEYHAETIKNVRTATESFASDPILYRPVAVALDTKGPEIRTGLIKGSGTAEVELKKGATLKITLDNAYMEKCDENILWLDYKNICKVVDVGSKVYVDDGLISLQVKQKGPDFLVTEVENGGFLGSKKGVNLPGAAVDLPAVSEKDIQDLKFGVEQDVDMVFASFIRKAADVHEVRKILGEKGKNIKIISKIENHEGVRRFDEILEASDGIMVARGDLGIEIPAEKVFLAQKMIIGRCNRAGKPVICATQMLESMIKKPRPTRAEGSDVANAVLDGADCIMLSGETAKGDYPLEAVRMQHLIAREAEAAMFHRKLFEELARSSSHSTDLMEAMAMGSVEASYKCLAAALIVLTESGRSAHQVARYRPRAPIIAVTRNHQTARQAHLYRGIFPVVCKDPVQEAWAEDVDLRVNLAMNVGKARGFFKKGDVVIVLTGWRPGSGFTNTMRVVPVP", "test": "Inhibition of rabbit muscle pyruvate kinase up to 12.5 uM using phosphoenolpyruvate as substrate measured for 5 mins by LDH-coupled assay", "details": "dose microM <=12.5, time 5.0 min"}, "HepG2": {"tested_on": "HepG2", "test": "Cytotoxicity against human HepG2 cells assessed as reduction in cell viability at >12.5 uM measured after 48 hrs by resazurin dye based fluorescence assay", "details": "hepg2, 48 h"}, "Staphylococcus aureus [6]": {"tested_on": "Staphylococcus aureus", "test": "Antibacterial activity against methicillin-resistant Staphylococcus aureus USA300 LAC at 0.15 to 25 uM incubated for 24 hrs under low pyruvate containing medium by resazurin dye based fluorescence assay", "assay_type": "functional, organism-based", "details": "dose microM 0.15-25, time 24.0 hrs"}, "Staphylococcus aureus [7]": {"tested_on": "Staphylococcus aureus", "test": "Antibacterial activity against methicillin-resistant Staphylococcus aureus USA300 LAC at 0.15 to 25 uM incubated for 24 hrs under low glucose medium by resazurin dye based fluorescence assay", "assay_type": "functional, organism-based", "details": "dose microM 0.15-25, time 24.0 hrs"}, "Staphylococcus aureus [8]": {"tested_on": "Staphylococcus aureus", "test": "Bactericidal activity against […] Staphylococcus aureus ATCC 700699 assessed as colony forming units at 5 fold MIC measured after 24 hrs by time kill assay", "assay_type": "functional"}, "Escherichia coli [9]": {"tested_on": "Escherichia coli", "test": "Synergistic antimicrobial activity against Escherichia coli ATCC BAA 2469 assessed as FIC after 24 hrs in presence of colistin by checkerboard assay relative to colistin", "assay_type": "functional"}, "Escherichia coli [10]": {"tested_on": "Escherichia coli", "test": "Synergistic antimicrobial activity against Escherichia coli ATCC BAA 2469 assessed as FICI after 24 hrs in presence of colistin by checkerboard assay", "assay_type": "functional"}, "[11]": {"test": "Solubility of compound in pH 7.7 PBS buffer", "assay_type": "physicochemical"}, "Acinetobacter baumannii [12]": {"tested_on": "Acinetobacter baumannii", "test": "Antibacterial activity against Acinetobacter baumannii ATCC BAA-1605 at 0.78 to 100 uM after 24 hrs by broth microdilution method", "assay_type": "functional, organism-based", "details": "dose microM 0.78-100, time 24.0 hrs"}, "[13]": {"test": "Selectivity index, ratio of IC50 for cytotoxicity against human THP-1 cells to MIC90 for antibacterial activity against […] Staphylococcus aureus ATCC 700699", "assay_type": "toxicity, cell-based", "details": "read-out: Selectivity Index"}, "Klebsiella pneumoniae [14]": {"tested_on": "Klebsiella pneumoniae", "test": "Synergistic antibacterial activity against Klebsiella pneumoniae ATCC 700603 assessed as FIC after 24 hrs in presence of colistin by checkerboard assay relative to test compound MIC", "assay_type": "functional"}, "Acinetobacter baumannii [15]": {"tested_on": "Acinetobacter baumannii", "test": "Synergistic antibacterial activity against Acinetobacter baumannii ATCC BAA-1605 assessed as FIC after 24 hrs in presence of colistin by checkerboard assay relative to colistin", "assay_type": "functional"}, "Enterococcus faecium [16]": {"tested_on": "Enterococcus faecium", "test": "Antibacterial activity against vancomycin-resistant Enterococcus faecium ATCC 35667 at 0.78 to 100 uM after 24 hrs by broth microdilution method", "assay_type": "functional, organism-based", "details": "dose microM 0.78-100, time 24.0 hrs"}, "Pseudomonas aeruginosa [17]": {"tested_on": "Pseudomonas aeruginosa", "test": "Synergistic antibacterial activity against Pseudomonas aeruginosa ATCC 27853 assessed as FIC after 24 hrs in presence of colistin by checkerboard assay relative to colistin", "assay_type": "functional"}, "Acinetobacter baumannii [18]": {"tested_on": "Acinetobacter baumannii", "test": "Synergistic antibacterial activity against Acinetobacter baumannii ATCC BAA-1605 assessed as FICI after 24 hrs in presence of colistin by checkerboard assay", "assay_type": "functional"}, "HEK293": {"tested_on": "HEK293", "test": "Cytotoxicity against HEK293 cells assessed as reduction in cell viability at >12.5 uM measured after 48 hrs by resazurin dye based fluorescence assay", "details": "human, hek293, 48 h"}, "Staphylococcus aureus [19]": {"tested_on": "Staphylococcus aureus", "test": "Antibacterial activity against vancomycin-sensitive Staphylococcus aureus T144 infected in Balb/c mouse peritonitis-sepsis model assessed as increase in survival at 5 mg/kg, ip measured for 48 hrs", "assay_type": "functional, organism-based"}, "Enterococcus faecium [20]": {"tested_on": "Enterococcus faecium", "test": "Antibacterial activity against vancomycin-resistant Enterococcus faecium ATCC 700221 at 0.78 to 100 uM after 24 hrs by broth microdilution method", "assay_type": "functional, organism-based", "details": "dose microM 0.78-100, time 24.0 hrs"}, "Klebsiella pneumoniae [21]": {"tested_on": "Klebsiella pneumoniae", "test": "Antibacterial activity against Klebsiella pneumoniae ATCC 700603 after 24 hrs by broth microdilution method", "assay_type": "functional"}, "MRC5": {"tested_on": "MRC5", "test": "Cytotoxicity against human MRC5 cells assessed as reduction in cell viability at >=12.5 uM measured after 48 hrs by resazurin dye based fluorescence assay", "details": "mrc5, 48 h"}, "Staphylococcus aureus [22]": {"tested_on": "Staphylococcus aureus", "test": "Antibacterial activity against vancomycin-sensitive Staphylococcus aureus T144 infected in Balb/c mouse assessed as increase in wound healing at 5 mg/kg applied topically measured daily for 12 days by microscopic analysis", "assay_type": "functional, organism-based", "details": "time 12.0 day"}, "Enterococcus faecalis [23]": {"tested_on": "Enterococcus faecalis", "test": "Antibacterial activity against Enterococcus faecalis ATCC 29212 at 0.78 to 100 uM after 24 hrs by broth microdilution method", "assay_type": "functional, organism-based", "details": "dose microM 0.78-100, time 24.0 hrs"}, "Staphylococcus aureus [24]": {"tested_on": "Staphylococcus aureus", "test": "Inhibition of Staphylococcus aureus ATCC 700699 N-terminal His6-tagged pyruvate kinase expressed in Escherichia coli NiCo21(DE3) at 12.5 uM using phosphoenolpyruvate as substrate measured for 5 mins by LDH-coupled assay"}, "[25]": {"test": "Solubility of compound in pH 7.7 DMSO:PBS solution", "assay_type": "physicochemical", "details": "buffer"}, "Pseudomonas aeruginosa [26]": {"tested_on": "Pseudomonas aeruginosa", "test": "Synergistic antibacterial activity against Pseudomonas aeruginosa ATCC 27853 assessed as FIC after 24 hrs in presence of colistin by checkerboard assay relative to test compound MIC", "assay_type": "functional"}, "Escherichia coli [27]": {"tested_on": "Escherichia coli", "test": "Antimicrobial activity against Escherichia coli ATCC BAA 2469 after 24 hrs by broth microdilution assay", "assay_type": "functional"}, "Pseudomonas aeruginosa [28]": {"tested_on": "Pseudomonas aeruginosa", "test": "Synergistic antibacterial activity against Pseudomonas aeruginosa ATCC 27853 assessed as FICI after 24 hrs in presence of colistin by checkerboard assay", "assay_type": "functional"}, "Pseudomonas aeruginosa [29]": {"tested_on": "Pseudomonas aeruginosa", "test": "Antibacterial activity against Pseudomonas aeruginosa ATCC 27853 measured after 24 hrs by broth microdilution method", "assay_type": "functional"}, "Klebsiella pneumoniae [30]": {"tested_on": "Klebsiella pneumoniae", "test": "Synergistic antibacterial activity against Klebsiella pneumoniae ATCC 700603 assessed as FICI after 24 hrs in presence of colistin by checkerboard assay", "assay_type": "functional"}, "Staphylococcus aureus [31]": {"tested_on": "Staphylococcus aureus", "test": "Antibacterial activity against […] Staphylococcus aureus ATCC 700699 after 24 hrs by broth microdilution method", "assay_type": "functional"}, "Staphylococcus aureus [32]": {"tested_on": "Staphylococcus aureus", "test": "Antibacterial activity against methicillin susceptible Staphylococcus aureus ATCC 25923 at 0.78 to 100 uM after 24 hrs by broth microdilution method", "assay_type": "functional, organism-based", "details": "dose microM 0.78-100, time 24.0 hrs"}, "Erythrocyte": {"tested_on": "Erythrocyte", "test": "Hemolytic activity against sheep erythrocytes up to 100 uM measured after 1 hr", "assay_type": "ADME, cell-based, Ovis aries"}, "Acinetobacter baumannii [33]": {"tested_on": "Acinetobacter baumannii", "test": "Synergistic antibacterial activity against Acinetobacter baumannii ATCC BAA-1605 assessed as FIC after 24 hrs in presence of colistin by checkerboard assay relative to test compound MIC", "assay_type": "functional"}, "Enterococcus faecalis [34]": {"tested_on": "Enterococcus faecalis", "test": "Antibacterial activity against Enterococcus faecalis ATCC 51299 at 0.78 to 100 uM after 24 hrs by broth microdilution method", "assay_type": "functional, organism-based", "details": "dose microM 0.78-100, time 24.0 hrs"}, "THP-1": {"tested_on": "THP-1", "test": "Cytotoxicity against human THP-1 cells assessed as reduction in cell viability at >=12.5 uM measured after 48 hrs by resazurin dye based fluorescence assay", "details": "thp-1, 48 h"}}, "note": "Calls of active or inactive are those of the source. No cut-off for these calls is given here."}
{"smiles": "Clc1ccc2[nH]cc(-c3cccc(-c4c[nH]c5ccc(Cl)cc45)n3)c2c1", "values": [{"measurement": "fold change (FC)", "setting": "Staphylococcus aureus [1]", "value": 10000}, {"measurement": "Activity", "setting": "Cell membrane [2]", "value": "Active"}, {"measurement": "Activity", "setting": "Cell membrane [3]", "value": "Active"}, {"measurement": "MIC", "setting": "Acinetobacter baumannii [4]", "value": "> 100", "unit": "µM"}, {"measurement": "inhibition", "setting": "[5]", "value": "inactive"}, {"measurement": "Activity", "setting": "HepG2", "value": "Toxic"}, {"measurement": "Activity", "setting": "Staphylococcus aureus [6]", "value": "Active"}, {"measurement": "Activity", "setting": "Staphylococcus aureus [7]", "value": "Active"}, {"measurement": "Activity", "setting": "Staphylococcus aureus [8]", "value": "<10", "unit": "CFU/ml"}, {"measurement": "FIC", "setting": "Escherichia coli [9]", "value": 0.064}, {"measurement": "fractional inhibitory concentration index (FICI)", "setting": "Escherichia coli [10]", "value": "<=0.0953"}, {"measurement": "solubility", "setting": "[11]", "value": "Insoluble"}, {"measurement": "Activity", "setting": "Acinetobacter baumannii [12]", "value": "Active"}, {"measurement": "selectivity ratio", "setting": "[13]", "value": 32}, {"measurement": "FIC", "setting": "Klebsiella pneumoniae [14]", "value": "<=0.125"}, {"measurement": "FIC", "setting": "Acinetobacter baumannii [15]", "value": 0.25}, {"measurement": "Activity", "setting": "Enterococcus faecium [16]", "value": "Active"}, {"measurement": "FIC", "setting": "Pseudomonas aeruginosa [17]", "value": 0.5}, {"measurement": "fractional inhibitory concentration index (FICI)", "setting": "Acinetobacter baumannii [18]", "value": "<=0.3125"}, {"measurement": "Activity", "setting": "HEK293", "value": "Toxic"}, {"measurement": "Activity", "setting": "Staphylococcus aureus [19]", "value": "Active"}, {"measurement": "Activity", "setting": "Enterococcus faecium [20]", "value": "Active"}, {"measurement": "MIC", "setting": "Klebsiella pneumoniae [21]", "value": "> 100", "unit": "µM"}, {"measurement": "Activity", "setting": "MRC5", "value": "Toxic"}, {"measurement": "Activity", "setting": "Staphylococcus aureus [22]", "value": "Active"}, {"measurement": "Activity", "setting": "Enterococcus faecalis [23]", "value": "Active"}, {"measurement": "inhibition", "setting": "Staphylococcus aureus [24]", "value": "inactive"}, {"measurement": "solubility", "setting": "[25]", "value": "Insoluble"}, {"measurement": "FIC", "setting": "Pseudomonas aeruginosa [26]", "value": "<=0.0625"}, {"measurement": "MIC", "setting": "Escherichia coli [27]", "value": "> 100", "unit": "µM"}, {"measurement": "fractional inhibitory concentration index (FICI)", "setting": "Pseudomonas aeruginosa [28]", "value": "<=0.5625"}, {"measurement": "MIC", "setting": "Pseudomonas aeruginosa [29]", "value": "> 100", "unit": "µM"}, {"measurement": "fractional inhibitory concentration index (FICI)", "setting": "Klebsiella pneumoniae [30]", "value": "<=0.25"}, {"measurement": "MIC90", "setting": "Staphylococcus aureus [31]", "value": 0.2, "unit": "µM"}, {"measurement": "Activity", "setting": "Staphylococcus aureus [32]", "value": "Active"}, {"measurement": "Activity", "setting": "Erythrocyte", "value": "Non-Toxic"}, {"measurement": "FIC", "setting": "Acinetobacter baumannii [33]", "value": "<=0.0625"}, {"measurement": "Activity", "setting": "Enterococcus faecalis [34]", "value": "Active"}, {"measurement": "Activity", "setting": "THP-1", "value": "Toxic"}]}
